Legend:
mouse A1AR = biological target: T1, mouse A1AR (Mus musculus, UniProt Q60612); assay: Radioligand binding, mouse A1AR; conditions: ratio of rat Ki to mouse Ki at A1AR
T1 sequence (Q60612 1-326): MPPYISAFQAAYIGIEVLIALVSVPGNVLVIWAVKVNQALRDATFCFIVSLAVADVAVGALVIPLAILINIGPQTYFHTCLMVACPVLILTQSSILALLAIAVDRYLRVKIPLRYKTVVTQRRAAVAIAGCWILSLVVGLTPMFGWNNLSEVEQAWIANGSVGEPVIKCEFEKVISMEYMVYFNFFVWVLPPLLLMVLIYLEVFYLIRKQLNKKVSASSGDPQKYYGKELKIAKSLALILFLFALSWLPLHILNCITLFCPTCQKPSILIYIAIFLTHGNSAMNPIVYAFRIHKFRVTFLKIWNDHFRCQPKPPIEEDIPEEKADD

[1] = biological target: serotonin transporter (SERT) (Homo sapiens, UniProt P31645); assay: PDSP off-target radioligand binding, serotonin transporter
Sequence of serotonin transporter (SERT) (P31645 whole entry): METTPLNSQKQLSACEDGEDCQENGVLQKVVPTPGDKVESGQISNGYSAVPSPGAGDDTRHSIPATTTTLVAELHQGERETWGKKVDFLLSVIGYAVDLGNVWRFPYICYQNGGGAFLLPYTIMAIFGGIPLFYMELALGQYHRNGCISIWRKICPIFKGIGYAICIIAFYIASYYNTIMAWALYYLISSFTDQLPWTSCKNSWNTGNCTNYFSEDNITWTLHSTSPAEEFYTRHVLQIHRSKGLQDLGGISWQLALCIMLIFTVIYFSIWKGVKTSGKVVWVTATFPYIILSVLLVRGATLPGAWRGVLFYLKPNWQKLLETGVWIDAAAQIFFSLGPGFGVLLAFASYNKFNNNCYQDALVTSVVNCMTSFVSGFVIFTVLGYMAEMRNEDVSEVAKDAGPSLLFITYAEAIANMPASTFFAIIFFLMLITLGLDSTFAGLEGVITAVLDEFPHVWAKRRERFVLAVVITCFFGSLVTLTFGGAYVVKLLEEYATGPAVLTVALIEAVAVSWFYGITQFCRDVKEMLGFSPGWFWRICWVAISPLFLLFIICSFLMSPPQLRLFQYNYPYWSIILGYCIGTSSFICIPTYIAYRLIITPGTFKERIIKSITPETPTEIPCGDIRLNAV

mouse A2BAR [2] = assay: Cell-based assay at mouse A2BAR; conditions: EC50 2.8 nM vs Ki 136 nM
mice [3] = assay: Telemetric monitoring of Tb and physical activity in mice; type: in vivo, mouse
[4] = test system: hypothalamic neurons (Fos); assay: Drug-induced neuronal activation; type: in vivo, mouse; conditions: BAY60-6583 0.004 mg/kg i.c.v.; Adora1−/−;Adora3−/− mice; 1 h; vs vehicle
mouse A2AAR = mouse A2AAR (Mus musculus, UniProt Q60613); conditions: read-out: mouse Ki, A2AAR, ref Alnouri et al., 2015; cited from earlier work
Sequence of mouse A2AAR (Q60613 whole entry): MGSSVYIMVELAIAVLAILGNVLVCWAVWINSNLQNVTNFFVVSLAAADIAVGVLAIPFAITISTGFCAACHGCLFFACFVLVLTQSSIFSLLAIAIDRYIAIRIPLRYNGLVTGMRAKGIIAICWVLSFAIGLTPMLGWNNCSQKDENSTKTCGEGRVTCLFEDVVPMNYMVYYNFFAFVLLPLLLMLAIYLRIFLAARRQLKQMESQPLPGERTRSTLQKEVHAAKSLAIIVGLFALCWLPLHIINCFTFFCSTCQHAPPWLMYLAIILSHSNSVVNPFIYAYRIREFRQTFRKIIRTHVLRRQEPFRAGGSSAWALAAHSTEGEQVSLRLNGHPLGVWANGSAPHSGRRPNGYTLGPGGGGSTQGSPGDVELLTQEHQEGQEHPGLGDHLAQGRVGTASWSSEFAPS

A1AR = conditions: read-out: rat Ki, A1AR, ref Alnouri et al., 2015; cited from earlier work
mouse A2BAR [5] = conditions: ref van der Hoeven et al., 2011, cited from earlier work
mice [6] = assay: Indirect calorimetry; conditions: BAY60-6583 1 mg/kg, i.p.; C57BL/6J mice
[7] = BAY60-6583 0.5–2 mg/kg, i.p., C57BL/6J mice

## N#Cc1c(N)nc(SCC(N)=O)c(C#N)c1-c1ccc(OCC2CC2)cc1 [BAY60-6583, 2-[6-amino-3,5-dicyano-4-[4-(cyclopropylmethoxy)phenyl]pyridin-2-ylsulfanyl]acetamide]
Mouse A1AR
  A1AR rat: mouse ratio: 1.5
[1]
  Ki: 5600 nM
Mouse A2BAR [2]
  EC50 better than the binding affinity at A2BAR: 50 fold
Mice [3]; BAY60-6583 0.004 mg/kg i.c.v., Adora1−/−;Adora3−/− mice
  Tb response (hypothermia): more modest effects
Mice [3]; BAY60-6583 0.004 mg/kg, i.c.v., C57BL/6J (WT) mice
  Tb response (hypothermia): caused hypothermia
Mice [3]; BAY60-6583 0.04 mg/kg i.c.v., Adora1−/−;Adora3−/− mice
  Tb response (hypothermia): profound, prolonged hypothermia
Mice [3]; BAY60-6583 1 mg/kg, i.p., Adora2b−/− mice, 1 mg/kg
  Tb response (hypothermia): completely abolished
Mice [3]; BAY60-6583 1 mg/kg, i.p., KitW−sh/W−sh mice
  Tb response (hypothermia): intact
Mice [3]; [7]
  Tb response (hypothermia): dose-dependent hypothermia
  physical activity: hypoactivity
Mice [3]; BAY60-6583, i.c.v. vs i.p.
  i.c.v. dose as fraction of a similarly hypothermic i.p. dose: 1/150
Mice [3]; BAY60-6583 i.p., Adora1−/−;Adora3−/− mice, not shown
  Tb response (hypothermia): intact
[4]
  Fos immunoreactivity, dorsomedial hypothalamus (DMH): not significantly different
  Fos immunoreactivity, ventromedial hypothalamus (VMH): not significantly different
  Fos immunostaining, paraventricular hypothalamus (PVH): increased Fos immunostaining
  Fos immunostaining, preoptic area (POA): increased Fos immunostaining
Mouse A2AAR
  Ki: > 10000 nM
A1AR
  Ki: 514 nM
Mouse A2BAR [5]; not mouse A1AR, A2AAR, or A3AR
  adenosine receptor activation selectivity: activate only mouse A2BAR
Mouse A2BAR [5]; read-out: EC50 at mouse A2BAR, cell-based assay
  EC50: 2.8 nM
Mice [6]
  food intake: lowered
  metabolic rate (total energy expenditure): lowered metabolic rate
  respiratory exchange ratio: lowered

Reference: article PMC6067974 (Neuropharmacology, 2018)
